Test results published in PubChem BioAssay (NCI).
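Growth conditions: 96-well plates. Treatment: test compound, 48 hours, 5 concentrations. Analysis: linear interpolation between bracketing concentrations; unreached endpoints set to highest concentration. GI50 is the concentration that inhibits growth by half. At the TGI there is no net growth.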

Tests used:
Experiment in all cases: NCI anticancer screen, dose series, 48 h
A498 renal = test system: A498 renal
CCRF-CEM leukemia = test system: CCRF-CEM leukemia
HCC-2998 colon = test system: HCC-2998 colon
K-562 leukemia = test system: K-562 leukemia
KM12 colon = test system: KM12 colon
SF-539 CNS = test system: SF-539 CNS
SK-MEL-5 melanoma = test system: SK-MEL-5 melanoma
HS 578T breast = test system: HS 578T breast
MALME-3M melanoma = test system: MALME-3M melanoma
NCI/ADR-RES ovarian = test system: NCI/ADR-RES ovarian
RXF 393 renal = test system: RXF 393 renal
SK-MEL-2 melanoma = test system: SK-MEL-2 melanoma
SN12C renal = test system: SN12C renal

Row | Compound | TGI (A498 renal) [µM] | TGI (CCRF-CEM leukemia) [µM] | TGI (HCC-2998 colon) [µM] | TGI (K-562 leukemia) [µM] | TGI (KM12 colon) [µM] | TGI (SF-539 CNS) [µM] | TGI (SK-MEL-5 melanoma) [µM] | TGI (HS 578T breast) [µM] | TGI (MALME-3M melanoma) [µM] | TGI (NCI/ADR-RES ovarian) [µM] | TGI (RXF 393 renal) [µM] | TGI (SK-MEL-2 melanoma) [µM] | TGI (SN12C renal) [µM] | GI50 (A498 renal) [µM] | GI50 (CCRF-CEM leukemia) [µM] | GI50 (HS 578T breast) [µM] | GI50 (NCI/ADR-RES ovarian) [µM] | GI50 (SF-539 CNS) [µM] | GI50 (SK-MEL-2 melanoma) [µM] | GI50 (SK-MEL-5 melanoma) [µM]
1 | Cc1ccc(N2C(=O)/C(=c3\s/c(=C(/N)O)c(=N)n3-c3ccccc3)SC2=S)cc1 | > 100 | > 100 | > 100 | > 100 | > 100 | > 100 | > 100 |  |  |  |  |  |  |  |  |  |  |  |  | 
2 | Cc1ccc(C2SC(N)=Nc3c2c(C)nn3C(=O)c2ccncc2)cc1 (stereo not drawn) |  | > 10 | > 10 | > 10 | > 10 | > 10 | > 10 | > 10 | > 10 | > 10 | > 10 | > 10 | > 10 |  |  |  |  |  |  | 
3 | CCCCCCCCCCCCCCCCCC(=O)NCCCNCCCNC(=O)CCCCCCCCCCCCCCCCC | > 100 | > 100 | > 100 | > 100 |  |  | > 100 |  | > 100 |  |  |  | > 100 |  |  |  |  |  |  | 
4 | Cc1[nH]n(-c2ccccc2)c(=S)c1C(=O)c1ccccc1 | 44.9 | 57 | 77.1 | > 100 | > 100 | > 100 | > 100 |  | > 100 |  | 10.8 | > 100 | 45.1 |  |  |  |  |  |  | 
5 | COc1ccc(C2=C(OC(C)=O)c3cccn3-c3ccccc3S2)cc1 |  | > 10 | > 10 |  | > 10 |  | > 10 |  | > 10 |  | 6.44 |  | > 10 |  |  |  |  |  |  | 
6 | CC1C(c2ccccc2O)c2cc3c(cc2OC1N1CCCC1)OCO3 (stereo not drawn) | 60.7 | > 100 | > 100 | 41.8 | > 100 | 50.2 | > 100 | 43.3 | 80.2 |  | 31.8 | 80 | 35.8 |  |  |  |  |  |  | 
7 | CCOc1ccc(N=Cc2cc(OC)c(OC)c(OC)c2)cc1 | > 100 | > 100 |  | > 100 | > 100 | > 100 | > 100 |  | > 100 |  | > 100 | > 100 | > 100 |  |  |  |  |  |  | 
8 | Cc1c2n(c3ccccc13)CC1C2N(C)OC1(C)C (stereo not drawn) |  | > 100 | > 100 | > 100 | > 100 | > 100 | > 100 |  | > 100 |  |  | > 100 | > 100 |  |  |  |  |  |  | 
9 | O=C(c1nsc(Cl)c1Cl)N1CCCCC1 |  | > 100 | > 100 | > 100 | > 100 | > 100 | > 100 | > 100 | > 100 | > 100 | > 100 |  | > 100 |  |  |  |  |  |  | 
10 | CNC(=O)N(CCC#N)CCN(CCN(C(=O)NC)c1ccccc1)C(=O)NC |  | > 100 | > 100 | > 100 | > 100 | > 100 | > 100 |  | > 100 | > 100 | > 100 | > 100 | > 100 |  |  |  |  |  |  | 
11 | Clc1ccc2c(NCCNc3nc(-c4ccccc4)cc(-c4ccccc4)n3)ccnc2c1 | 5.61 | 5.83 |  |  |  | 3.35 | 3.2 | 4.56 |  | 3.6 |  | 3.62 |  | 2.15 | 2.32 | 1.99 | 1.77 | 1.79 | 1.84 | 1.79
12 | CCC(C)(C)NC1=C(NC(C)=O)C(=O)c2ccccc2C1=O |  | 41.3 | > 75 | 53.4 | > 75 | > 75 | 26 |  | > 75 |  | > 75 | 58.2 | > 75 |  |  |  |  |  |  | 
13 | N#Cc1c(N2CCOCC2)ncn(-c2ccccc2)c1=O | > 100 | > 100 | > 100 | > 100 | > 100 | > 100 | > 100 |  |  | > 100 |  | > 100 | > 100 |  |  |  |  |  |  | 
14 | CCN(CC)CC(C)(C)C(=O)/C=C/c1ccc(C)cc1 | 15.5 | 19.2 | 21.6 | > 100 | 19 | 26.2 | 29.1 |  | 21.7 |  | 21.6 | 25.7 | 19.8 |  |  |  |  |  |  | 
15 | c1ccc2cc3n[se]nc3cc2c1 |  | > 100 | > 100 | > 100 | > 100 | > 100 | > 100 |  | > 100 |  | > 100 | > 100 | > 100 |  |  |  |  |  |  | 
16 | COC(=O)[C@]1(c2cc3ccccc3n2S(=O)(=O)c2ccccc2)CC2CCC1NC2 (stereo partly drawn) |  | 56.8 | 21.6 | 24.4 | 28.3 | 32.2 | 26.4 |  | 30.5 | 44.6 | 25.7 | 31.7 | 29.4 |  |  |  |  |  |  | 
